Data taken from patent US6399590B2, “Phosphoglycolipid and methods for its use” (Corixa Corporation, priority 1998, dated 2002).

Tested on: Adult mongrel dogs, left anterior descending coronary artery (LAD) occlusion/reperfusion
Assay: Infarct size in the dog, 60 min LAD occlusion and 3 h reperfusion
Format: in vivo
Conditions: AG 30 mg/kg alone, 60 min before occlusion; mean ± SEM
Method: Adult mongrel dogs of either sex, weighing 19.0-30.0 kg were fasted overnight, anaesthetized with intravenous sodium barbital (200 mg/kg) and sodium pentobarbital (15 mg/kg), and ventilated with room air supplemented with 100% oxygen at an end expiratory pressure of 5-7 cm H2O to prevent atelectasis. Arterial blood pH PO2 and PCO2 were monitored at selected intervals by an automatic blood gas system and maintained within a normal physiological range (pH 7.35-7.45, PO2 10.6-16.0 kPa, PCO2 3,3-4.7 kPa) by adjusting the respiratory rate and oxygen flow and by an infusion of 1.5% sodium bicarbonate when necessary. Body temperature was maintained at 38±1° C. by using a heating pad.
A double pressure-transducer-tipped catheter was inserted into the aorta and left ventricle via the left carotid artery for measurements of aortic and left ventricular pressure. Left ventricular dP/dt was determined by electronic differentiation of the left ventricular pressure pulse.
A left thoracotomy was performed at the fifth intercostal space. The lung was retracted, the pericardium incised, and the heart suspended in a cradle. A 10-15 mm segment of the left anterior descending coronary artery (LAD) was dissected from surrounding tissue. […]
Regional myocardial blood flow was measured by the radioactive microsphere technique. […]

SMILES: N=C(N)NN [AG, aminoguanidine, reference compound]
- IS/AAR(%) (infarct size / area at risk): 22.4 ± 2.8%
